The source of these data is ChEMBL document CHEMBL1129269, “1-aryl-4-[(1-tetralinyl)alkyl]piperazines: alkylamido and alkylamino derivatives. Synthesis, 5-HT1A receptor affinity, and selectivity. 3” (J Med Chem, 1996).

Molecules are shown by their SMILES. Bounds are passed on as bounds.

The target of assay [1] is T1, 5-hydroxytryptamine receptor 1A (Rattus norvegicus, UniProt P19327).
T1 sequence (P19327 whole entry): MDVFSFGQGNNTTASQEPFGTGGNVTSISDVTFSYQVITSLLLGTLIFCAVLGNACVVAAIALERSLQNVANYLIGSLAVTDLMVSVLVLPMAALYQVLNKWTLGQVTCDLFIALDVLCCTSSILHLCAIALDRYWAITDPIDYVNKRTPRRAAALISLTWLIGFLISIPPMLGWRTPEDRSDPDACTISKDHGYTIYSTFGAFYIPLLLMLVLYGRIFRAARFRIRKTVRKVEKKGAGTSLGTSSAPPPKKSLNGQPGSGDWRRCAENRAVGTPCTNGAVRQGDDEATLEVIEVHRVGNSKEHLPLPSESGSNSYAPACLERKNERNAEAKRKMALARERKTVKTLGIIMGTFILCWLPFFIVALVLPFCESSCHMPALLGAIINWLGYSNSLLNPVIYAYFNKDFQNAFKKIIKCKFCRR
Put plainly: Binding affinity against 5-hydroxytryptamine 1A receptor in rat hippocampus membranes using [3H]8-OH-DPAT as radioligand. The format is cell membranes, Membrane.

Assay [2] has as its target T2, Adrenergic receptor alpha-1 (Rattus norvegicus, UniProt P15823+P23944+P43140).
T2 sequence (P15823 whole entry): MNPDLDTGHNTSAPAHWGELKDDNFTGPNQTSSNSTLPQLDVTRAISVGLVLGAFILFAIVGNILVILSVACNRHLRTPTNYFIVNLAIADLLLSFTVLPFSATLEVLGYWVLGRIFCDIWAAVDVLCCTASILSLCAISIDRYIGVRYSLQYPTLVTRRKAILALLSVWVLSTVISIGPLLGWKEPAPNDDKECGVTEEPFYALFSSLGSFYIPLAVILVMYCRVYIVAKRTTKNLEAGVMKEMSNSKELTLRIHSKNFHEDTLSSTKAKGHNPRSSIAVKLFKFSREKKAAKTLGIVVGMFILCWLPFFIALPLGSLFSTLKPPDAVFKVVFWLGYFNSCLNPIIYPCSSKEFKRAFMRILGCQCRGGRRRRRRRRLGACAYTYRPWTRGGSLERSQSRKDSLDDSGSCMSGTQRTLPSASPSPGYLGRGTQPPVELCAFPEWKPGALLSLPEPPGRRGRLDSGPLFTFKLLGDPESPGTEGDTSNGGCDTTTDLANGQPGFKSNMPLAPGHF
T2 sequence (P23944 whole entry): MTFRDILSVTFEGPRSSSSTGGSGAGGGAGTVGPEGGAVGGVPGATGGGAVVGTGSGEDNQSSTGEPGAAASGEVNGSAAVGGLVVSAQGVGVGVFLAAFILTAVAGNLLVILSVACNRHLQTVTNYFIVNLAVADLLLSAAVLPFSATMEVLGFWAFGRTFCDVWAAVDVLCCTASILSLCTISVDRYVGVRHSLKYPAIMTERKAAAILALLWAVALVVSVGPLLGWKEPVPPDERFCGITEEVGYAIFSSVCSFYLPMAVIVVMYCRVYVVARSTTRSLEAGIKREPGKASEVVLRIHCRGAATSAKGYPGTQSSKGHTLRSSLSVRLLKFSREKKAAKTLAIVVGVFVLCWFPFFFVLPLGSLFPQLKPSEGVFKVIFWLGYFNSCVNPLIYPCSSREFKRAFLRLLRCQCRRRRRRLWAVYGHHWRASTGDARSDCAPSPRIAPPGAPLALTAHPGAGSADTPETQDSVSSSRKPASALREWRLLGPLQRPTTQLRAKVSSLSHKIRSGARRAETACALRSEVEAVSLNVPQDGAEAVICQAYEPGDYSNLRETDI
T2 sequence (P43140 whole entry): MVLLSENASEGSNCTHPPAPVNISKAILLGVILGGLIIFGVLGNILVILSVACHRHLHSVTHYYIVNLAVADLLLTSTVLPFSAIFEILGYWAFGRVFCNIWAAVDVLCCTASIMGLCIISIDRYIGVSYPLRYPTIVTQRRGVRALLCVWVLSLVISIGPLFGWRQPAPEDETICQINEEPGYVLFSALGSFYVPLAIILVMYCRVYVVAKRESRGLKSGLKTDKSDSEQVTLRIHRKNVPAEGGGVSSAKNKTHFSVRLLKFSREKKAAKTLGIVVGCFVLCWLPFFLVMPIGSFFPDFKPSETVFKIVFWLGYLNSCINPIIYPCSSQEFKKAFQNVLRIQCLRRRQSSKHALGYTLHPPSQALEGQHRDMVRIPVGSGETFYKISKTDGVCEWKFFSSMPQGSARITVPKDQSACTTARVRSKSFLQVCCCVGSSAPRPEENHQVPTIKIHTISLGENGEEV
Put plainly: Binding affinity against Alpha-1 adrenergic receptor in rat brain membrane using [3H]prazosin as radioligand. It counts as cell membranes.

For the next assay, the target named is D(2) dopamine receptor (Rattus norvegicus, UniProt P61169). Nature of the assay: Binding affinity against Dopamine receptor D2 in rat striatal membrane using [3H]spiroperidol as radioligand. It counts as cell membranes, Striatum.
Chain of D(2) dopamine receptor (P61169 whole entry): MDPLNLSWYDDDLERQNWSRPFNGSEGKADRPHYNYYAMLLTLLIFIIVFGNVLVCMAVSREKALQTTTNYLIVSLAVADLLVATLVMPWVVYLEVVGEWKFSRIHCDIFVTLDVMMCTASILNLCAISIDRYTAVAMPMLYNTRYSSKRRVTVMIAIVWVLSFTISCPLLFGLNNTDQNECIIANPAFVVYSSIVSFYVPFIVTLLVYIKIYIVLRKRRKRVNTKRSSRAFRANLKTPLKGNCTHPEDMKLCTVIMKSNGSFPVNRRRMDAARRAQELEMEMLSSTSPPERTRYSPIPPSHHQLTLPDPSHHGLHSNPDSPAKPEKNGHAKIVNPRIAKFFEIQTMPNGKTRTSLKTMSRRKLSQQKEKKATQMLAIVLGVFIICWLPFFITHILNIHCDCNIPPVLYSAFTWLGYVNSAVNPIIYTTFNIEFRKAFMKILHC
The target in assay [3] is T3, Adrenergic receptor alpha-2 (Rattus norvegicus, UniProt P22086+P19328+P22909).
T3 sequence (P22086 whole entry): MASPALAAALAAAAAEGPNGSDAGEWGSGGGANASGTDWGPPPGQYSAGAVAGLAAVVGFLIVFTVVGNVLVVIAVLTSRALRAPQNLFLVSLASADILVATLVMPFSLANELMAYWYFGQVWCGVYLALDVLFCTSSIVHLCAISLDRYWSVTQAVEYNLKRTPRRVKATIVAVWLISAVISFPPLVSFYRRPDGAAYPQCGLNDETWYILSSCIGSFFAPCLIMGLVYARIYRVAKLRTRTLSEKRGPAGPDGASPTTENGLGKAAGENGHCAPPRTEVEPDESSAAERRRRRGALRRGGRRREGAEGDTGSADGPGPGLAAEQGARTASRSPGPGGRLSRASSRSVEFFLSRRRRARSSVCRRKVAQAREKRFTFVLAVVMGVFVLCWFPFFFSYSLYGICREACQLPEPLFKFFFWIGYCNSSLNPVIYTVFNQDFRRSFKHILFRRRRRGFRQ
T3 sequence (P19328 whole entry): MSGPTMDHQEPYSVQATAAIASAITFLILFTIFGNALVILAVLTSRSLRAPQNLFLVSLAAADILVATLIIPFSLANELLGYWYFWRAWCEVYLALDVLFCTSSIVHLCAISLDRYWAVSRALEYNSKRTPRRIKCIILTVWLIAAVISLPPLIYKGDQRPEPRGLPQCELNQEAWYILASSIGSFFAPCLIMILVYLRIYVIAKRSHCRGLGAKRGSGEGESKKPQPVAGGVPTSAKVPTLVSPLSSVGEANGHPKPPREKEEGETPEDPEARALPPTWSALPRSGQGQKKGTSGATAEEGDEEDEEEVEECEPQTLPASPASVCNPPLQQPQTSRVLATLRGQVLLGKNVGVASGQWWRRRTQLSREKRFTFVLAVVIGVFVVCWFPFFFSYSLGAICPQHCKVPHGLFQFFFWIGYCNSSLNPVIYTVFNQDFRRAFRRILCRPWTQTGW
T3 sequence (P22909 whole entry): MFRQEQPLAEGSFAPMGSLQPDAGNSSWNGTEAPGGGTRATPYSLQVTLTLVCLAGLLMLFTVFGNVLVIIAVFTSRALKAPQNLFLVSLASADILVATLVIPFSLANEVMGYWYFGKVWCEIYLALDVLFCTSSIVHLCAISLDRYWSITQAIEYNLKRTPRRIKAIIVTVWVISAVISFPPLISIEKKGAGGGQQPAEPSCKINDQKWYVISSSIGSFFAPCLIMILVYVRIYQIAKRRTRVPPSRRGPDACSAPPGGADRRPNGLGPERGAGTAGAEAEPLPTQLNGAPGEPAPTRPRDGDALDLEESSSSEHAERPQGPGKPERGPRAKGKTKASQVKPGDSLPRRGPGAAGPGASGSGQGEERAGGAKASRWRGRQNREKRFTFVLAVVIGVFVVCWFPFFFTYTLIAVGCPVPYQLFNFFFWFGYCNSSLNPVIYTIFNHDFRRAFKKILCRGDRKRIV
Put plainly: Binding affinity against Alpha-2 adrenergic receptor in rat brain membrane using [3H]yohimbine as radioligand. The format is cell membranes.

Assay [4] deals with Serotonin 2 (5-HT2) receptor (Rattus norvegicus, UniProt P30994+P08909+P14842). Put plainly: Binding affinity against 5-hydroxytryptamine 2 receptor in rat brain using [3H]ketanserin as radioligand. It counts as tissue-based.
Assay [5] deals with T1, 5-hydroxytryptamine receptor 1A. Put plainly: Binding affinity against serotonin 5-hydroxytryptamine 1A receptor in rat hippocampus membrane using [3H]8-OH-DPAT as radioligand. It counts as cell membranes.

With `COc1ccccc1N1CCN(CCN(C)C2CCCc3c(OC)cccc32)CC1` (stereo not given), the half-inhibitory concentration (IC50) (as a rule, the point on the concentration scale where inhibition reaches its midpoint) in assay [1] was found to be 8.7 nM; in assay [2], 887 nM; on D(2) dopamine receptor, 73 nM; in assay [3] it was 112 nM; in assay [4], 1740 nM.

With `COc1cccc2c1CCCC2NC(=O)CN1CCN(c2ccccc2)CC1` (stereo not given), the IC50 in assay [2] was 5980 nM; on D(2) dopamine receptor it was greater than 10000 nM; in assay [3], greater than 10000 nM; in assay [4], greater than 10000 nM.

On to `COc1ccccc1N1CCN(CCN(C)C(=O)C2CCCc3c(OC)cccc32)CC1` (stereo not given), for which the IC50 in assay [1] was determined as 307 nM; in assay [2] it was 297 nM; on D(2) dopamine receptor, 332 nM; in assay [3], 183 nM; in assay [4], 1070 nM.

With `COc1cccc2c1CCCC2NCCN1CCN(c2ccccc2)CC1` (stereo not given), the IC50 in assay [1] worked out at 92 nM; in assay [2], 790 nM; on D(2) dopamine receptor, 1200 nM; in assay [3], 310 nM; in assay [4], 2720 nM.

Take `COc1cccc2c1CCCC2CNCCN1CCN(c2ccccc2)CC1` (stereo not given): the IC50 in assay [1] came out at 116 nM; in assay [2], 1150 nM; on D(2) dopamine receptor, 1100 nM; in assay [3], 1420 nM; in assay [4], 1900 nM.

Turning to `COc1cccc2c1CCCC2C(=O)NCCN1CCN(c2ccccn2)CC1` (stereo not given), the IC50 in assay [5] came to 173 nM; in assay [2], 838 nM; at D(2) dopamine receptor, 2440 nM; in assay [3], 7220 nM; in assay [4] it was 1270 nM.

Take `COc1cccc2c1CCCC2NC(=O)CCN1CCN(c2ccccc2)CC1` (stereo not given): the IC50 in assay [1] was determined as 311 nM; in assay [2], 313 nM; on D(2) dopamine receptor, 2970 nM; in assay [3] it was 2680 nM; in assay [4], 1200 nM.

Regarding `COc1cccc2c1CCCC2NCCN1CCN(c2ccccn2)CC1` (stereo not given), the IC50 in assay [2] turned out to be 725 nM; at D(2) dopamine receptor it was 1850 nM; in assay [3] it was 95 nM; in assay [4], 9140 nM.

Take `COc1ccccc1N1CCN(CCNC(=O)C2CCCc3c(OC)cccc32)CC1` (stereo not given): the concentration for half-maximal inhibition (IC50) in assay [5] stood at 35 nM; on D(2) dopamine receptor, 448 nM; in assay [3] it was 1380 nM; in assay [4], 1710 nM.

For `COc1ccccc1N1CCN(CCCNC(=O)C2CCCc3c(OC)cccc32)CC1` (stereo not given), the IC50 in assay [5] turned out to be 16 nM; in assay [2], 84 nM; on D(2) dopamine receptor, 116 nM; in assay [3] it was 564 nM; in assay [4], 2040 nM.

Take `COc1ccccc1N1CCN(CCCNC2CCCc3c(OC)cccc32)CC1` (stereo not given): the IC50 in assay [1] came to 10 nM; in assay [2], 881 nM; at D(2) dopamine receptor, 1060 nM; in assay [3], 458 nM; in assay [4], 3300 nM.

Consider `COc1ccccc1N1CCN(CCC(=O)NC2CCCc3c(OC)cccc32)CC1` (stereo not given), for which the IC50 amounted to 153 nM in assay [2], 761 nM at D(2) dopamine receptor, 1250 nM in assay [3] and 841 nM in assay [4].

As for `COc1cccc2c1CCCC2NCCCN1CCN(c2ccccc2)CC1` (stereo not given), the IC50 in assay [1] came to 53 nM; in assay [2], 626 nM; at D(2) dopamine receptor it was 2160 nM; in assay [3], 788 nM; in assay [4], 2690 nM.

For `COc1cccc2c1CCCC2NC(=O)CCN1CCN(c2ccccn2)CC1` (stereo not given), the IC50 in assay [1] was determined as 135 nM; in assay [2], 534 nM; at D(2) dopamine receptor, 1900 nM; in assay [3] it was 1330 nM; in assay [4], 726 nM.

Take `COc1cccc2c1CCCC2C(=O)N(C)CCCN1CCN(c2ccccc2)CC1` (stereo not given): the IC50 in assay [1] worked out at 134 nM; in assay [2], 159 nM; on D(2) dopamine receptor, 594 nM; in assay [3], 144 nM; in assay [4] it was 134 nM.

With `COc1cccc2c1CCCC2C(=O)N(C)CCN1CCN(c2ccccc2)CC1` (stereo not given), the IC50 is 271 nM in assay [1]; 510 nM in assay [2]; 882 nM at D(2) dopamine receptor; 250 nM in assay [3]; 848 nM in assay [4].

As to `COc1cccc2c1CCCC2C(=O)NCCCN1CCN(c2ccccn2)CC1` (stereo not given), the IC50 in assay [1] was 95 nM; in assay [2] it was 327 nM; at D(2) dopamine receptor, 819 nM; in assay [3] it was 746 nM; in assay [4], 428 nM.

Take `COc1ccccc1N1CCN(CCCC2CCCc3c(OC)cccc32)CC1` (stereo not given): the IC50 in assay [5] was 0.77 nM; in assay [2], 6.5 nM; in assay [3] it was 17 nM; in assay [4] it was 330 nM.
